Assay [1] addresses T1, Lysosomal acid glucosylceramidase (Mus musculus, UniProt P17439).
T1 sequence (P17439 whole entry): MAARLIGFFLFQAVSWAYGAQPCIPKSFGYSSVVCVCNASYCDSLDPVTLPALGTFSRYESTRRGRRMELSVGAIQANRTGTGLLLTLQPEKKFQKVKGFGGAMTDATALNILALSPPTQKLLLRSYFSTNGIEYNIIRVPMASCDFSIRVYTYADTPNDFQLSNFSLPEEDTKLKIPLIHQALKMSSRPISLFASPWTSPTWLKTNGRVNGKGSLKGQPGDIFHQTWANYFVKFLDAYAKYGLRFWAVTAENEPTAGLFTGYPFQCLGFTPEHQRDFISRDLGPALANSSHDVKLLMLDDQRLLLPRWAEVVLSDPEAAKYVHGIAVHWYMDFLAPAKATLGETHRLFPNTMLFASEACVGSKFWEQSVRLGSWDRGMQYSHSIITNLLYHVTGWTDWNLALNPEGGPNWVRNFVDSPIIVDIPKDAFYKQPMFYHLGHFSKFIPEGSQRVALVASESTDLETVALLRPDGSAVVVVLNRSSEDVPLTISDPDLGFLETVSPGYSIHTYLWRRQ
As to the kind of experiment: Compound was tested for inhibitory activity against beta-glucocerebrosidase.

Assay [2] addresses T1, Lysosomal acid glucosylceramidase.

This note sets out measurements from ChEMBL document CHEMBL1149959, “Synthesis of potent -D-glucocerebrosidase inhibitors: N-alkyl--valienamines” (Bioorg Med Chem Lett, 1996).

pIC50: −log10 of the molar value.

`CCCCCCCCCCCCCCN[C@@H]1C=C(CO)[C@H](O)C(O)[C@@H]1O` (some centres undefined) gave a pIC50 in assay [1] of 6.92.

Take `OC1C2O[C@H]2[C@@H](O)C(O)[C@@H]1O` (some centres undefined): the pIC50 in assay [1] is 5.96. `CCCCCCCCCCN[C@@H]1C=C(CO)[C@H](O)C(O)[C@@H]1O` (some centres undefined) showed a pIC50 in assay [1] of 7.15. Same read-out and setting: the result for `CCCCCCN[C@@H]1C=C(CO)[C@H](O)C(O)[C@@H]1O` (some centres undefined) reads 6.52; that for `CCCCN[C@@H]1C=C(CO)[C@H](O)C(O)[C@@H]1O` (some centres undefined), 4.96; that for `CCCCCCCCCCCCC/C=C/[C@@H](O)[C@H](CN[C@@H]1C=C(CO)[C@H](O)C(O)[C@@H]1O)NC(=O)CCCCCCCCCCCCCCC` (some centres undefined), 6.52.

Take `CCCCCCCCN[C@@H]1C=C(CO)[C@H](O)C(O)[C@@H]1O` (some centres undefined): the negative logarithm of the IC50 (pIC50) in assay [1] is 7.52. In assay [1], `CCCCCCCCCCCCCCCCCCN[C@@H]1C=C(CO)[C@H](O)C(O)[C@@H]1O` (some centres undefined) gave a negative logarithm of the IC50 (pIC50) of 6.52. Regarding `N[C@H]1C=C(CO)C(O)[C@H](O)C1O` (single isomer, unassigned) [VALIENAMINE], the IC50 result in assay [2] is “Not Active”.
